Experimental findings from patent US5053418A, “Antiprotozoal agents” (Burroughs Wellcome Co., priority 1983, dated 1991) are described below.

One test concerns P.falciparum. The test can be described thus: In vitro activity against P.falciparum: inhibition of 3H-adenosine/3H-hypoxanthine incorporation (modified Desjardins). In kind it is cell-based. Particulars: for inhibition at 0.625 µg/mL: 0.625 mg/L; for inhibition at 1.25 µg/mL: 1.25 mg/L; for inhibition at 6.25 pg/mL: 0.00000625 mg/L; for inhibition at 12.5 pg/mL: 0.0000125 mg/L; for ED50 for naphthoquinone / ED50 for Clopidol (4-pyridinol): 2580 min. As to the method: Each of the two compounds to be tested were dissolved in ethanol at a concentration of 10 mg/L and serially diluted with RPMI 1640 medium and 10% (v/v) human plasma in microtitration plates. P.falciparum-parasitised and fresh blood cells were added together with ^3 H-adenosine or ^3 H-hypoxanthinein RPMI 1640 medium and 10% human plasma. The cultures were then incubated at 37° C. for 43 hours, harvested and the particulate contents collected on glass fibre filter papers which were washed copiously with water using a Cooke Microtiter System (Dynatech Labs. Europe); the filter papers were dried and the radioactivity measured using a scintillation counter. Infected, untreated and uninfected cultures were included as controls. Percent inhibition was correlated with dose to provide an IC50 for each drug alone.
For subsequent combination experiments the individual drug solutions and mixtures thereof were serially diluted.
By the method of Example 1 the effect of a number of naphthoquinone/clopidol (4-pyridinol) combinations on P.falciparum in vitro were determined.

Another test concerns P.yoelii. In words: In vivo effect on P.yoelii in mice (inhibition of parasitaemia). How it is done:
The naphthoquinone and the pyridinol were each suspended in 0.25% (w/v) celacol in water by milling for 16-24 hours at 26° C. The suspensions were subsequently serially diluted with 0.25% (w/v) celacol in water. At time 0, 0.1 ml of a suspension of 10^7 P.yoelii-parasitised red blood cells/ml of phosphate buffered saline were injected intravenously into 15-20 g mice through a tail vein. Groups of 5 mice per treatment were dosed orally at times 6, 22, 30, 46, 54, 70 and 78 hours with 0.2 ml of the drug suspension. Tail-blood smears were taken at 96 hours, stained with Giemsa and the percentage of red blood cells infected determined and compared to untreated, infected controls. Percent inhibition was correlated with dose to provide ED50 values for each drug alone. In subsequent experiments dilutions of the two drugs, alone and in combination were used, and the percentage inhibition of parasitaemia and ED50 values (of each drug at fixed concentrations of the other) were determined. The results are shown respectively in Tables V and VI. A number of combinations of clopidol (4-pyridinol) and naphthoquinones were assayed and compared with each drug alone for their antimalarial effect against P.yoelii in vivo by the method of Example 4.

The mark [1] stands for this setting: Plasmodium falciparum, naphthoquinone alone.
The mark [2] stands for this setting: Plasmodium falciparum, 4-pyridinol analogue alone.

One may read the inhibition as the change of the read-out against control, counted positive when it falls. Consider `Cc1ccc(C2CCC(C3=C(O)C(=O)c4ccccc4C3=O)CC2)cc1C` (centres unmarked), for which the inhibition at 0.000125 µg/mL in the test with P.falciparum (Plasmodium falciparum, naphthoquinone alone, 0.000125 mg/L) was determined as 15%. Further, the inhibition at 0.00025 µg/mL in the test on P.falciparum (Plasmodium falciparum, naphthoquinone alone, 0.00025 mg/L) was 30%.
Regarding `O=C1C(O)=C(C2CCCC2)C(=O)c2ccccc21`, in the test with P.falciparum (setting [1]), the inhibition at 0.625 µg/mL worked out at 0% and the inhibition at 1.25 µg/mL was found to be 2%.
For `CC(C)(C)C1CCC(C2=C(O)C(=O)c3ccccc3C2=O)CC1` (centres unmarked) [drawing 10], in the test on P.falciparum (setting [1]), the inhibition at 6.25 pg/mL amounted to 17% and the inhibition at 12.5 pg/mL was determined as 13%.
Take `CCCCCCCCCCCCCC1=C(O)C(=O)c2ccccc2C1=O` [(CH2)12 Me]: the inhibition at 0.0078 µg/mL with P.falciparum (Plasmodium falciparum, naphthoquinone alone, 0.0078 mg/L) was found to be 4%. Moreover, the inhibition at 0.0156 µg/mL with P.falciparum (Plasmodium falciparum, naphthoquinone alone, 0.0156 mg/L) turned out to be 10%.
For `CCCc1nc(CCC)c(Br)c(O)c1Br` [X = Br, R^3 = Pr, 3,5-dibromo-2,6-dipropyl-4-pyridinol], the inhibition at 3.125 µg/mL in the test with P.falciparum (Plasmodium falciparum, 4-pyridinol analogue alone, 3.125 mg/L) amounted to 9%. Further, the inhibition at 6.25 µg/mL with P.falciparum (Plasmodium falciparum, 4-pyridinol analogue alone, 6.25 mg/L) came to 15%.
In general, % inhibition refers to the change of the read-out against control, counted positive when it falls. For `CC(C)(C)C1CCC(C2=C(Cl)C(=O)c3ccccc3C2=O)CC1` (centres unmarked) [drawing 6, 2-(4-t-butylcyclohexyl)-3-chloro-1,4-naphthoquinone], the “% inhibition” value worked out at 14% in the test with P.falciparum (naphthoquinone alone, 0.125 mg/L) and 17% in the test with P.falciparum (naphthoquinone alone, 0.25 mg/L).
As for `CC(C)(C)C1CCCC(C2=C(O)C(=O)c3ccccc3C2=O)C1` (centres unmarked), the inhibition at 0.05 µg/mL with P.falciparum (Plasmodium falciparum, naphthoquinone alone, 0.0500 mg/L) came to 8%. In addition, in the test with P.falciparum (Plasmodium falciparum, naphthoquinone alone, 0.100 mg/L), the inhibition at 0.1 µg/mL is 24%.
Consider `CC(C)(C)C1CCC(C2=C(Cl)C(=O)c3ccccc3C2=O)CC1` (centres unmarked) [2-(4-t-butylcyclohexyl)-3-chloro-1,4-naphthoquinone] [listing 1 of 2 here], for which the ED50 for naphthoquinone worked out at 0.851 µg/mL with P.falciparum (fixed clopidol 0.000 mg/L (alone)); 0.699 µg/mL in the test on P.falciparum (fixed clopidol 0.00625 mg/L); 0.401 µg/mL in the test on P.falciparum (fixed clopidol 0.0125 mg/L); 0.478 µg/mL in the test with P.falciparum (fixed clopidol 0.0250 mg/L); 0.447 µg/mL with P.falciparum (fixed clopidol 0.0500 mg/L); 0.287 µg/mL in the test with P.falciparum (fixed clopidol 0.100 mg/L). The ED50 for naphthoquinone with P.falciparum (fixed clopidol 0.200 mg/L) was 0.198 µg/mL; in the test with P.falciparum (fixed clopidol 0.400 mg/L), 0.155 µg/mL; in the test with P.falciparum (fixed clopidol 0.800 mg/L) it was 0.0801 µg/mL; in the test on P.falciparum (fixed clopidol 1.60 mg/L) it was 0.0303 µg/mL; with P.falciparum (fixed clopidol 3.20 mg/L), 0.0075 µg/mL.
For `CCC(C)(C)C1CCC(C2=C(O)C(=O)c3ccccc3C2=O)CC1` (centres unmarked), in the test with P.falciparum (setting [1]), the inhibition at 6.25 pg/mL came out at 31% and the inhibition at 12.5 pg/mL came out at 51%.
In the case of `CC(=O)OC1=C(C2CCC(C)(C)CC2)C(=O)c2ccccc2C1=O`, the inhibition at 0.00075 µg/mL in the test on P.falciparum (Plasmodium falciparum, naphthoquinone alone, 0.000750 mg/L) amounted to 0%. In addition, the inhibition at 0.0015 µg/mL in the test with P.falciparum (Plasmodium falciparum, naphthoquinone alone, 0.00150 mg/L) was 0%.
Turning to `Cc1nc(C)c(Br)c(O)c1Br` [X = Br, R^3 = Me, 3,5-dibromo-2,6-dimethyl-4-pyridinol], the inhibition at 0.125 µg/mL in the test on P.falciparum (Plasmodium falciparum, 4-pyridinol analogue alone, 0.125 mg/L) is 2%. For the same compound, in the test with P.falciparum (Plasmodium falciparum, 4-pyridinol analogue alone, 0.25 mg/L), the inhibition at 0.25 µg/mL is 14%.
As for `CCCc1nc(CCC)c(Cl)c(O)c1Cl` [X = Cl, R^3 = Pr, 3,5-dichloro-2,6-dipropyl-4-pyridinol], in the test with P.falciparum (setting [2]), the inhibition at 0.625 µg/mL came to 12% and the inhibition at 1.25 µg/mL turned out to be 24%.
For the compound `CC(C)(C)C1CCC(C2=C(Cl)C(=O)c3ccccc3C2=O)CC1` (centres unmarked) [2-(4-t-butylcyclohexyl)-3-chloro-1,4-naphthoquinone] [listing 2 of 2 here], in the test on P.falciparum (Plasmodium falciparum, naphthoquinone alone, 0.0625 mg/L), the inhibition at 0.0625 µg/mL was 18%. For the same compound, the inhibition at 0.125 µg/mL in the test with P.falciparum (Plasmodium falciparum, naphthoquinone alone, 0.125 mg/L) was determined as 14%. Moreover, in the test on P.falciparum (Plasmodium falciparum, naphthoquinone alone, 0.25 mg/L), the inhibition at 0.25 µg/mL came to 17%. Further, the inhibition at 0.5 µg/mL in the test with P.falciparum (Plasmodium falciparum, naphthoquinone alone, 0.50 mg/L) amounted to 31%. The inhibition at 1 µg/mL with P.falciparum (Plasmodium falciparum, naphthoquinone alone, 1.0 mg/L) came to 55%. Besides, the inhibition at 2 µg/mL in the test on P.falciparum (Plasmodium falciparum, naphthoquinone alone, 2.0 mg/L) was 75%.
One may read the inhibition in vivo as the percentage by which the read-out fell short of the control. Turning to `Cc1nc(C)c(Cl)c(O)c1Cl` [Clopidol, 3,5-dichloro-2,6-dimethyl-4-pyridinol, reference compound], the inhibition at 0.8 µg/mL in the test with P.falciparum (Plasmodium falciparum, 4-pyridinol alone, 0.80 mg/L) was found to be 44%. Moreover, the inhibition at 1.6 µg/mL with P.falciparum (Plasmodium falciparum, 4-pyridinol alone, 1.6 mg/L) came to 55%. The inhibition at 3.2 µg/mL in the test on P.falciparum (Plasmodium falciparum, 4-pyridinol alone, 3.2 mg/L) was 74%. Besides, the “% inhibition” value in the test on P.falciparum (clopidol (4-pyridinol) alone, 0.10 mg/L, listed as 4-pyridinol) is reported as 24%; in the test on P.falciparum (clopidol (4-pyridinol) alone, 0.20 mg/L, listed as 4-pyridinol), 18%; with P.falciparum (clopidol (4-pyridinol) alone, 0.40 mg/L, listed as 4-pyridinol), 22%. The “ED50 for Clopidol (4-pyridinol)” value in the test with P.falciparum (fixed naphthoquinone 0.0 mg/L (alone)) was 1.18 (1.44 to 0.980) mg/L; in the test on P.falciparum (fixed naphthoquinone 0.00781 mg/L) it was 1.63 mg/L; in the test on P.falciparum (fixed naphthoquinone 0.0156 mg/L), 0.128 mg/L; with P.falciparum (fixed naphthoquinone 0.0313 mg/L) it was 2.57 mg/L; in the test with P.falciparum (fixed naphthoquinone 0.0625 mg/L), 1.03 (14.2 to 0.405) mg/L; in the test on P.falciparum (fixed naphthoquinone 0.125 mg/L) it was 0.578 mg/L. The “ED50 for Clopidol (4-pyridinol)” value is listed as 0.074 mg/L in the test on P.falciparum (fixed naphthoquinone 0.250 mg/L); 0.052 mg/L in the test with P.falciparum (fixed naphthoquinone 0.500 mg/L); 0.0092 mg/L with P.falciparum (fixed naphthoquinone 1.00 mg/L); 0.00097 mg/L with P.falciparum (fixed naphthoquinone 2.00 mg/L); 0.00012 mg/L in the test on P.falciparum (fixed naphthoquinone 4.00 mg/L); 22.5 (27.6 to 19.4) mg/Kg/dose in the test with P.yoelii (fixed naphthoquinone 0.000 (alone)). Moreover, the “ED50 for Clopidol (4-pyridinol)” value is 13.8 (21.5 to 10.7) mg/Kg/dose in the test on P.yoelii (fixed naphthoquinone 0.019), 5.14 (6.22 to 4.23) mg/Kg/dose in the test with P.yoelii (fixed naphthoquinone 0.0375), 1.87 (2.45 to 1.30) mg/Kg/dose with P.yoelii (fixed naphthoquinone 0.075) and 0.522 (0.946 to 0.0356) mg/Kg/dose with P.yoelii (fixed naphthoquinone 0.15). In addition, the inhibition in vivo at 1.9 mg/kg in the test with P.yoelii (Plasmodium yoelii, po, 96 h, clopidol alone, 1.9 mg/Kg/dose, 7 doses) amounted to 6%. In addition, the inhibition in vivo at 2.5 mg/kg in the test on P.yoelii (Plasmodium yoelii, po, 96 h, clopidol alone, 2.5 mg/Kg × 7) stood at 0%. In addition, the inhibition in vivo at 3.7 mg/kg in the test with P.yoelii (Plasmodium yoelii, po, 96 h, clopidol alone, 3.7 mg/Kg/dose, 7 doses) came out at 17%. Further, the inhibition in vivo at 7.5 mg/kg with P.yoelii (Plasmodium yoelii, po, 96 h, clopidol alone, 7.5 mg/Kg/dose, 7 doses) amounted to 13%. Moreover, in the test on P.yoelii (Plasmodium yoelii, po, 96 h, clopidol alone, 13 mg/Kg × 7), the inhibition in vivo at 13 mg/kg is 5%. The inhibition in vivo at 15 mg/kg in the test with P.yoelii (Plasmodium yoelii, po, 96 h, clopidol alone, 15 mg/Kg/dose, 7 doses) turned out to be 34%. For the same compound, in the test on P.yoelii (Plasmodium yoelii, po, 96 h, clopidol alone, 30 mg/Kg/dose, 7 doses), the inhibition in vivo at 30 mg/kg was found to be 61%.
Turning to `O=C1C(O)=C(C2CCC(c3ccc(Cl)cc3)CC2)C(=O)c2ccccc21` (centres unmarked), the inhibition in vivo at 0.01 mg/kg with P.yoelii (Plasmodium yoelii, po, 96 h, naphthoquinone alone, 0.010 mg/Kg × 7) was found to be 5%. In the test with P.yoelii (Plasmodium yoelii, po, 96 h, naphthoquinone alone, 0.020 mg/Kg × 7), the inhibition in vivo at 0.02 mg/kg came out at 12%. The “% inhibition of parasitaemia (combination)” value in the test on P.yoelii (naphthoquinone 0.010 + clopidol 1.4 mg/Kg × 7) is recorded as 29%; with P.yoelii (naphthoquinone 0.010 + clopidol 4.3 mg/Kg × 7) it was 68%; with P.yoelii (naphthoquinone 0.020 + clopidol 1.4 mg/Kg × 7) it was 55%; with P.yoelii (naphthoquinone 0.020 + clopidol 4.3 mg/Kg × 7), 90%.
As for `O=C1C(O)=C(C2CCCCC2)C(=O)c2ccccc21`, the inhibition in vivo at 1.5 mg/kg in the test with P.yoelii (Plasmodium yoelii, po, 96 h, naphthoquinone alone, 1.5 mg/Kg × 7) was 1%. Moreover, the inhibition in vivo at 3 mg/kg with P.yoelii (Plasmodium yoelii, po, 96 h, naphthoquinone alone, 3.0 mg/Kg × 7) came out at 15%. Besides, the “% inhibition of parasitaemia (combination)” value in the test on P.yoelii (naphthoquinone 1.5 + clopidol 1.9 mg/Kg × 7) is listed as 47%; in the test on P.yoelii (naphthoquinone 1.5 + clopidol 3.75 mg/Kg × 7), 76%; in the test on P.yoelii (naphthoquinone 3.0 + clopidol 1.9 mg/Kg × 7), 64%; with P.yoelii (naphthoquinone 3.0 + clopidol 3.75 mg/Kg × 7) it was 97%.
